{"source": "paper PMC10135964", "about": "“One Scaffold, Two Conformations: The Ring-Flip of the Messenger InsP8 Occurs under Cytosolic Conditions” (Biomolecules, 2023)", "key": {"[1]": {"experiment": "Van't Hoff thermodynamic analysis of InsP8 conformational equilibrium", "type": "physicochemical", "settings": "10 mM NaCl; for ΔH^0 of eq. to ax. conformational transition / ΔS^0 of eq. to ax. conformational transition: 50 µM InsP8, pH* 7.5, 130 mM KCl", "protocol": "BIRD-HMQC NMR spectra were recorded as described above, at 274–283 K in 1 K steps, two replicate samples per condition. Instrument temperature was calibrated against d4-methanol according to Findeisen et al..\nSamples contained 50 µM InsP8, 5 mM HEPES pH* 7.5 (pH set on ice), 130 mM KCl, 10 mM NaCl, and either 100 µM or 250 µM MgCl2. Acquisition parameters were SW(^13C): 62–82 ppm, NS: 2048, TD(^13C): 16.\nThe best-isolated peaks (the 2-peak of ax. and 1-peak of eq. conformer) were integrated, subtracting 1PP-InsP5 impurities. The ax./eq. ratio (i.e., equilibrium constant K for the eq. to ax. transition) was plotted against 1/T, where T is temperature in Kelvin.\nΔH^0 and ΔS^0 were calculated from the regression line. Two replicates were combined for the linear regression."}, "VTC complex": {"tested_on": "VTC complex", "design": "method as in PMID 28186404", "settings": "in vitro, VTC complex from budding yeast S. cerevisiae; cited from earlier work"}, "[2]": {"experiment": "1H,13C BIRD-HMQC NMR quantification of axial vs. equatorial conformer", "type": "physicochemical", "settings": "pH* 7.5, 5 equiv. Ca2+, 130 mM KCl, 10 mM NaCl"}}}
{"smiles": "O=P(O)(O)O[C@@H]1[C@@H](OP(=O)(O)O)[C@H](OP(=O)(O)OP(=O)(O)O)[C@@H](OP(=O)(O)O)[C@H](OP(=O)(O)OP(=O)(O)O)[C@@H]1OP(=O)(O)O", "note": "[InsP8, 1,5(PP)2-InsP4]", "values": [{"measurement": "ΔH^0 of eq. to ax. conformational transition", "setting": "[1]; 2 equiv. MgCl2, 274–283 K", "value": "-17.1 ± 2.1", "unit": "kcal/mol"}, {"measurement": "ΔS^0 of eq. to ax. conformational transition", "setting": "[1]; 2 equiv. MgCl2, 274–283 K", "value": "−0.063 ± 0.008 kcal/(mol·K)"}, {"measurement": "ΔH^0 of eq. to ax. conformational transition", "setting": "[1]; 5 equiv. MgCl2, 274–283 K", "value": "-7.2 ± 1.9", "unit": "kcal/mol"}, {"measurement": "ΔS^0 of eq. to ax. conformational transition", "setting": "[1]; 5 equiv. MgCl2, 274–283 K", "value": "−0.025 ± 0.007 kcal/(mol·K)"}, {"measurement": "axial conformer estimated at 37 °C (Gibbs-Helmholtz equation)", "setting": "[1]; 2 equiv. Mg2+, pH* 7.5, 130 mM KCl", "value": "about 2%"}, {"measurement": "axial conformer predicted at 37 °C (310 K)", "setting": "[1]; 5 equiv. Mg2+, pH* 7.5, 130 mM KCl", "value": 29, "unit": "%"}, {"measurement": "effectiveness at activating polyphosphate synthesis by the VTC complex", "setting": "VTC complex", "value": "twenty-times more effective than 5PP-InsP5"}, {"measurement": "proportion in axial conformation", "setting": "[2]", "value": "About 15%"}]}
